Results taken from ChEMBL document CHEMBL3102700, “Truncated norzoanthamine exhibiting similar collagen protection activity, toward a promising anti-osteoporotic drug” (Bioorg Med Chem Lett, 2014).
The source made the active and inactive calls. The rule behind the calls is not given here.

Columns and labels:
[1] = Collagen protection activity of the compound assessed as residual collagen level after 180 mins by Sirius red colorimetric assay
[2] = Collagen protection activity of the compound assessed as residual collagen level at 1 uM after 180 mins by Sirius red colorimetric assay
[3] = Collagen protection activity of the compound assessed as residual collagen level at 10 uM after 180 mins by Sirius red colorimetric assay
[4] = Collagen protection activity of the compound assessed as residual collagen level at 0.1 uM after 180 mins by Sirius red colorimetric assay

| Structure (SMILES) | Activity [1] | Activity [2] [%] | Activity [3] [%] | Activity [4] [%] |
| --- | --- | --- | --- | --- |
| CC1=CC(=O)CCC1 | inactive |  |  |  |
| CC1=CC(=O)[C@H]2CC(=O)[C@H]3[C@@](C)(C[C@@]45OC(=O)C[C@]3(C)[C@]4(C)CC[C@]34C[C@@H](C)C[C@H](CN35)O4)[C@@H]2C1 |  | 40.4 | 45 |  |
| C[C@H]1C[C@@H]2CN3[C@](CC[C@@]4(C)[C@]5(C)CCC[C@]34OC(=O)C5)(C1)O2 | Dose-dependent effect | 46.6 | 47.8 | 40 |
| COC(=O)C[C@@]1(C)[C@H]2C(=O)C[C@@H]3C(=O)C=C(C)C[C@H]3[C@]2(C)C=C2N3C[C@H]4C[C@H](C)C[C@]3(CC[C@]21C)O4 | inactive |  |  |  |
